Entries after “also recorded” stand apart in the source; their conditions may differ.
Assays:
[1] = target: T1, LRRK2 dimerization (Homo sapiens, UniProt Q5S007); experiment: In vitro dimerization assay (co-immunoprecipitation of GFP- and Strep-tagged LRRK2); format: biochemical; settings: 10 μM peptide overnight, HEK293 lysates
T1 construct: co-transfecting HEK293 cells with GFP-tagged and strep-tagged full-length LRRK2; expressed in transfected cells; host or cells: HEK293
Experimental: In vitro dimerization assay. HEK293 cells were co-transfected using JetPEI reagent (Polyplus transfection) with pcDNA3.1_GFP.LRRK2 and pDEST(N)SF.LRRK2. Cells were cultivated for 48 hours. The cells were then lysed with 200 μL ice-cold lysis buffer (10 mM Tris/HCl pH 7.5; 150 mM NaCl; 0.5 mM EDTA; 0.5% NP-40), complete EDTA-free protease inhibitor cocktail (Sigma-Aldrich Cat #11836170001) and Protease Inhibitor Cocktail, Sigma (cat. no. P-2714). The mixture was incubated and rotated on ice for 30 minutes with extensively pipetting every 10 minutes. Lysate was cleared by centrifugation for 10 min at 14000 g for 10 min at 4° C. The supernatant was transferred to a precooled tube and 300 μL dilution buffer (same as lysis buffer without NP-40) was added to the lysate. Peptides were added to a final concentration of 10 μM and the mixture was allowed to rotate at 4° C. overnight. GFP-LRRK2 was immunoprecipitated with Magnetic GFP nanotrap beads (ChromoTek). […] The membranes were coated with enhanced chemiluminescent (ECL) reagent (WesternSure PREMIUM, Li-COR biosciences), and proteins were detected by C-Digit Imaging System (Li-COR Biosciences).
To determine whether LCIP1 and LRIP4 could effectively disrupt LRRK2 dimerization, we monitored disruption of dimerization using two different tagged versions of LRRK2. […]

[2] = test system: LRRK2 dimers (WT/WT, WT/G2019S, G2019S/G2019S); experiment: Proximity biotinylation ELISA-based LRRK2 dimerization assay in cells; format: cell-based; settings: for LRRK2 dimerization in cells (FIG. 8): 0.1, 1 and 10 μM fluorescently labeled peptide; for LRRK2 dimerization, wild-type homodimers and wild-type/G2019S heterodimers: HEK293 cells
Sequence of LRRK2 dimers (WT/WT, WT/G2019S, G2019S/G2019S) (Q5S007 1328-1878 limits assumed, stated change not applied): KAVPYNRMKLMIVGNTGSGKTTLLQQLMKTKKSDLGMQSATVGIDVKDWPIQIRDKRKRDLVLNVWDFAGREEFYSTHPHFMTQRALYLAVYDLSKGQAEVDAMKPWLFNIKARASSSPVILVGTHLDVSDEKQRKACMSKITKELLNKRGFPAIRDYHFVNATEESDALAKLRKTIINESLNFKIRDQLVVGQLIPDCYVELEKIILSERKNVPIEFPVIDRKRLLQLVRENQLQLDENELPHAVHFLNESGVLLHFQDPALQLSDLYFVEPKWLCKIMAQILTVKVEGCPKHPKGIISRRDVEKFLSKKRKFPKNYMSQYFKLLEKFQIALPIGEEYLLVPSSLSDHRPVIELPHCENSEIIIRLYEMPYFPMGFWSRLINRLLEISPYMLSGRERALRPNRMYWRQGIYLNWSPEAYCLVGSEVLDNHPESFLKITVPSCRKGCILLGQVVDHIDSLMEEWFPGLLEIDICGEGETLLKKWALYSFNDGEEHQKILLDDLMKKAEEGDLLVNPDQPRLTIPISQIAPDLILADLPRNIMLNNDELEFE
Excerpt: Proximity biotinylation of LRRK2. To purify LRRK2 dimers, we relied on the proximity biotinylation technique recently described (E. Leandrou et al., Kinase activity of mutant LRRK2 manifests differently in hetero-dimeric vs. homo-dimeric complexes. Biochem J 476, 559-579 (2019); and M. Fernandez-Suarez, T. S. Chen, A. Y. Ting, Protein-protein interaction detection in vitro and in cells by proximity biotinylation. J Am Chem Soc 130, 9251-9253 (2008)). Briefly, two cDNAs were created encoding LRRK2 fusions with biotin ligase (BirA; N-term, Flag-tagged) and an acceptor peptide (AP, N-term; c-Myc tagged), and over-expressed in HEK293T cells grown in biotin-depleted medium (OptiMEM+2% FBS). The following day, the cells were treated with the indicated concentrations of the stapled peptides: LRIP4 and LCIP1. Stock peptides, fluorescently tagged, were diluted in serum-free medium, and added every 24 hours after transfection. After 48 hours following initiation of treatment (i.e. 72 hr of total expression), the cells were extensively washed in PBS, given a brief biotin pulse (50 μM, 5 min, 37° C.), followed by another 3× washes in PBS, centrifuged and the pellet snap frozen in a dry-ice/MeOH bath. Following lysis, extracts were diluted in TBST/BSA (10 mM Tris HCl, pH 7.6; 100 mM NaCl; 0.1% Triton X-100; 1% BSA) and 2.5 μg of protein loaded in parallel ELISA plates, coated with streptavidin (SA; to capture biotinylated LRRK2 dimers) and anti-LRRK2 (to quantify LRRK2 over-expression). To detect and quantify dimeric LRRK2, SA-coated plates were incubated with HRP-conjugated anti-Flag antibodies (1 hour, room temperature). Since the biotin tag is only present on AP-LRRK2 fusions, and the flag epitope tag is located on the BirA-LRRK2 fusion, by using HRP-Flag as our detector reagent, we are specifically labeling dimeric LRRK2 present in the ELISA plates. On the parallel anti-LRRK2 coated plates (clone c41-2), total over-expressed LRRK2 was quantified using HRP-LRRK2 antibodies (clone N241) and used to normalize the relative amounts of dimeric LRRK2. The following LRRK2 dimers were assessed: WT/WT homodimers, WT/G2019S, and G2019S/G2019S homodimers.
In this assay, HEK293T cells expressing either wild-type or G2019S mutants of LRRK2 fusions, either with the biotin ligase BirA or the acceptor peptide AP, were treated with increasing concentrations (0.1, 1, and 10 μM) of each fluorescently labeled peptide.

[3] = test system: HEK293 cells
Experimental: Flow Cytometry. HEK293 cells were plated in 96-well plates (50 000/well) and allowed to grow 24 h in complete growth medium (DMEM supplemented with 10% fetal bovine serum, L-glutamine). DMEM was carefully aspirated and cells were treated with fresh pre-warmed complete growth medium supplemented with 10 μM of peptide or DMSO. After 6 hours, cells were analyzed on Beckman Cytoflex flow cytometer (Beckman Coulter). Using forward and side scattered light, a gate for intact, non-aggregated cells was defined and the fluorescence of 10,000 events was collected within this cell gate. The fluorescent channel for FITC (488-nm excitation [ex], 525-nm emission [em]) was used. Data was analyzed using FlowJo software and the reported fluorescent intensity values represent arithmetic means of the results determined for the analyzed cells.

T1 sequence (Q5S007 whole entry): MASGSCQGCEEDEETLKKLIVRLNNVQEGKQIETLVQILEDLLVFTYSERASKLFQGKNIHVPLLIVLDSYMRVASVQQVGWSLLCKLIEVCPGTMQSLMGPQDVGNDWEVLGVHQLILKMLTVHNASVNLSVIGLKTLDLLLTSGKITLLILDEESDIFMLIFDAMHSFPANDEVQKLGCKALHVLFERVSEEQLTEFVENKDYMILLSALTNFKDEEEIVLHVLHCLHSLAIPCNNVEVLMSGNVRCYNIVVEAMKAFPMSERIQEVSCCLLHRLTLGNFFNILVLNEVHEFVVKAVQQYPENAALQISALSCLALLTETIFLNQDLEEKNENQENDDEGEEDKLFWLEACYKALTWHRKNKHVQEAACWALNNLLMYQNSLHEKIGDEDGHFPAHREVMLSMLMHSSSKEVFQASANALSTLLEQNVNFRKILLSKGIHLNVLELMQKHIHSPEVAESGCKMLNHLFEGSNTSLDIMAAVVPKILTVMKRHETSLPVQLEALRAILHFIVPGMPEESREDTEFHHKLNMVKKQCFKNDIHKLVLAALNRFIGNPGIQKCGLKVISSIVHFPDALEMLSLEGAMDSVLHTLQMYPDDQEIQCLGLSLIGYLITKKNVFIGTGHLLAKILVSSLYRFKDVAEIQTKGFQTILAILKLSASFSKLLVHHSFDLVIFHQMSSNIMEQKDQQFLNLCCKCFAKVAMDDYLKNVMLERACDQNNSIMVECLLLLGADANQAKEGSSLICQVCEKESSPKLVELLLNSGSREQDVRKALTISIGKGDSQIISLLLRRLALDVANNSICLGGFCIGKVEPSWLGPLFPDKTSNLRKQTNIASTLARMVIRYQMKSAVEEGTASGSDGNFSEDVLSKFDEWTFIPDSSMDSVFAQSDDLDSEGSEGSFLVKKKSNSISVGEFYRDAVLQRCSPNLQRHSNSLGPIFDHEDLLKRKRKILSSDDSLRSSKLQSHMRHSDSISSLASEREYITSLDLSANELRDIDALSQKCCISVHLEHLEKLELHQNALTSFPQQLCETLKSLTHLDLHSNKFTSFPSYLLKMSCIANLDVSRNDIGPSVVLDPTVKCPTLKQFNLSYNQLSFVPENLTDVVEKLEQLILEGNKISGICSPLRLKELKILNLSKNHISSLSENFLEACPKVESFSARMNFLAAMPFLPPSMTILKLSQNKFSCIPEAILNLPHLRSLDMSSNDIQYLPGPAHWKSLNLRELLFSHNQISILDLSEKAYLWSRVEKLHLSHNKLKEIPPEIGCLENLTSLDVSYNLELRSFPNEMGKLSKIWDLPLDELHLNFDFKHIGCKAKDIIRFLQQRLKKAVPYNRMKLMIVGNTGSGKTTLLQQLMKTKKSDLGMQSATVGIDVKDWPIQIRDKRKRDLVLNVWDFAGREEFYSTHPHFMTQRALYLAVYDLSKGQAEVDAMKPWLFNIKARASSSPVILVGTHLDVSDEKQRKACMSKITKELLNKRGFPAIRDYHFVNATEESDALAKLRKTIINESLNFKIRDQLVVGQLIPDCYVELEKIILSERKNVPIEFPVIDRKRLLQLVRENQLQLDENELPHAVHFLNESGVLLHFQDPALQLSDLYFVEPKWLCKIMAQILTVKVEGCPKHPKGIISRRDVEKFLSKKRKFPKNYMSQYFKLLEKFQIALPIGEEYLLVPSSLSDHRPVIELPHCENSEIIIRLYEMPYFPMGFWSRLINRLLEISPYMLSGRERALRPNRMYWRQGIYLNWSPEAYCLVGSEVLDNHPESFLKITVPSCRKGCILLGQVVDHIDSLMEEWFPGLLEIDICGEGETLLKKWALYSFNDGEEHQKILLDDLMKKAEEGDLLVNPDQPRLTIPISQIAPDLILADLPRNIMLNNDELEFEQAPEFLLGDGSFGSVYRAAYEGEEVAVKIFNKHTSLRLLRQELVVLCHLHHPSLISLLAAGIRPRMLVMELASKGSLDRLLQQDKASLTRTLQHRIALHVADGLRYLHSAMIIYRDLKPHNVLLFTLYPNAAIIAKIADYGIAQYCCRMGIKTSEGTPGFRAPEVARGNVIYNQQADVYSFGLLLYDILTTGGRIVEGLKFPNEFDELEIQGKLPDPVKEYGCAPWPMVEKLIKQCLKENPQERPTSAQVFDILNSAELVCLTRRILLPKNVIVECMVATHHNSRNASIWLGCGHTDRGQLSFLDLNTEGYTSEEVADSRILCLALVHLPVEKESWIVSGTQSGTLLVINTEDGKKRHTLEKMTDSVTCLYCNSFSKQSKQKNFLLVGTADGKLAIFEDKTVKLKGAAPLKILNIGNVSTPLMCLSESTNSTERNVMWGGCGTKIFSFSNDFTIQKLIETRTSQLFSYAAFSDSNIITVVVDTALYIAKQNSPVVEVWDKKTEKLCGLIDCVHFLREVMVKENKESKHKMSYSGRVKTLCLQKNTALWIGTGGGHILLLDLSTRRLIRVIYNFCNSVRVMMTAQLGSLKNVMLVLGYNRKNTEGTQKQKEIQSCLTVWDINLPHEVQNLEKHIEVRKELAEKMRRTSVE

Row | Substance | LRRK2 dimerization (Strep-LRRK2 co-precipitated with GFP-LRRK2) [1] | LRRK2 dimerization in cells (FIG. 8) [2] | LRRK2 dimerization, wild-type homodimers and wild-type/G2019S heterodimers [2] | dose dependence of cell uptake by flow cytometry [3] | LRRK2 dimerization, G2019S/G2019S homodimers and G2019S/wild-type heterodimers ([2]; HEK293(T) cells, 10 mM peptide as printed)
1 | COR-domain stapled peptide formed from SEQ ID NO. 16 KGEGEXLLKXWK, X = (S)-2-(4′-pentenyl)alanine; PEG3 linker, FAM or biotin label (hydrocarbon staple; PEG3 linker; FAM or biotin; COR domain peptide; (6)..(6) Xaa is (S)-2-(4′-pentenyl)alanine; (10)..(10) Xaa is (S)-2-(4′-pentenyl)alanine) [LCIP1] | reduced the co-immunoprecipitation of the two LRRK2 proteins; also recorded: able to disrupt LRRK2 dimerization; also recorded: reduced dimerization; also recorded: inhibitory effect on LRRK2 | failed to consistently lead to a reduction in LRRK2 dimerization; also recorded: no statistically significant effect on dimerization | no statistically significant effects on dimerization | dose-dependent uptake | 
2 | Roc-domain stapled peptide formed from SEQ ID NO. 6 DEKQRKAC(Nle)SKITKEXLNKX, X = (S)-2-(4′-pentenyl)alanine; PEG3 linker, FAM or biotin label (DEKQRKACXSKITKEXLNKX; hydrocarbon staple; Nle; PEG3 linker; FAM or biotin; ROC domain petide; (9)..(9) Xaa is norleucine; (16)..(16) Xaa is (S)-2-(4′-pentenyl)alanine; (20)..(20) Xaa is (S)-2-(4′-pentenyl)alanine) [LRIP4] | reduced the co-immunoprecipitation of the two LRRK2 proteins; also recorded: able to disrupt LRRK2 dimerization with LRIP4 having the most pronounced effect; also recorded: reduced dimerization; also recorded: inhibitory effect on LRRK2 | effectively disrupts LRRK2 dimerization in cells | inhibit dimerization of both wild-type LRRK2 homodimers and wild-type/G2019S LRRK2 heterodimers | dose-dependent uptake | statistically significant reduction in both G2019S/G2019S and G2019S/wild-type LRRK2 dimers; also recorded: inhibit dimerization of both wild-type/G2019S LRRK2 heterodimers or G2019S LRRK2 homodimers

— patent publication US12565520B2, “Chemically-stabilized allosteric modulators of leucine-rich repeat kinase 2 (LRRK2)” (UNIVERSITY OF GEORGIA RESEARCH FOUNDATION, INC., priority 2020, dated 2026)
